pIC50: −log10 of the molar value.
Target: T1, Neutrophil elastase (Homo sapiens, UniProt P08246)
T1 sequence (P08246 whole entry): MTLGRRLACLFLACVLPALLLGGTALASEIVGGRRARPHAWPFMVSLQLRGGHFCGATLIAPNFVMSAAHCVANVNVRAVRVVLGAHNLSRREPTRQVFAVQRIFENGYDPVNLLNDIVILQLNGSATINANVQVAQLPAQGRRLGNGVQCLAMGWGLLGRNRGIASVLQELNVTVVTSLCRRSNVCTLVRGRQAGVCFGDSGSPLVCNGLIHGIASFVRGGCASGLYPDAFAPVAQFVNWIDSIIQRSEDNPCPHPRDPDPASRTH
Experiment: Elastase Activity Assay
Source text: The elastase inhibitor activity was examined using N-succinyl-Ala-Ala-Ala-pnitroanilide (STANA) as the substrate and by the measuring of the release of p-nitroaniline at 410 nm [James et al., Biochemistry, 35:9090-9096].

pIC50 | SMILES
6.38 | C[C@H]1[C@H](C)CC[C@]2(C(=O)O)CC[C@]3(C)C(=CC[C@@H]4[C@@]5(C)CC[C@H](O)C(C)(C)[C@@H]5CC[C@]43C)[C@H]12 [3beta-hydroxyurs-12-en-28-oic acid]
6.90 | CN(CCN(Cc1cc(=O)oc2c(O)c(O)ccc12)c1ccccc1)c1ccccc1 [4,4'-(Ethane-1,2-diylbis(phenylazanediyl))bis(methylene)bis(6,7-dihydroxy-2H-chromen-2-one) (7)]
6.90 | CN(CCN(Cc1cc(=O)oc2cc(O)c(O)cc12)c1ccccc1)c1ccccc1 [4,4'-(Ethane-1,2-diylbis(phenylazanediyl))bis(methylene)bis(7,8-dihydroxy-2H-chromen-2-one) (3)]

Reference: BindingDB's records for doi:10.3109/14756366.2012.692086 (Giresun University, 2013)
